Reference: patent publication US20250312320A1, “METHOD AND TREATMENT FOR OSTEOARTHRITIS AND DISEASES OF CHONDROCYTE HYPERTROPHY” (The Royal Veterinary College, priority 2022, published 2025)
“Also recorded” adds a separate entry of the source.

Legend:
ATDC5 micromass = test: IL-1β induced extracellular matrix degradation of ATDC5 micromass: gene expression; type: cell-based, mouse
Method: To mimic this route of cartilage degradation in vitro, 10 μl ATDC5 micromasses were seeded and differentiated in the presence of 1 μM BI1347 or DMSO for 11 days to allow for sufficient ECM deposition. Cells were then serum starved for 24 hours in differentiation media containing 1% FBS before treatment with 1 μM BI1347 or DMSO for 1 hour and subsequent induction of ECM degradation by co-treatment with 10 ng/ml IL-1β (PeproTech) for 48 hours. Compound only conditions were used as a negative control and additional micromasses were differentiated in the presence of 1 μM BI1347 for the entire culture period to observe whether pre-treatment of ATDC5 with BI1347 alters cellular responses to IL-1B. On day 14 micromasses were stained with alcian blue and leached as previous and RNA extracted for gene expression analysis as above.

[1] = test system: primary equine chondrocytes; test: Primary equine chondrocyte micromass treated with BI1347: gene expression; type: cell-based; settings: 1 μM
Method: (§1) Articular cartilage was isolated, placed into a petri dish containing phosphate buffer saline (PBS) supplemented with 2% Ab/Am (PBS-Ab/Am) and transferred to a laminar flow hood for processing. Cartilage shavings were minced using a sterile scalpel to approximately 1 mm^3 and washed in fresh PBS-Ab/Am by centrifugation at 500×g for 10 minutes. Supernatant was removed and the cartilage pellet resuspended in 5 ml TrypLE™ (Gibco) before incubation at 37° C. for 10 minutes with gentle agitation. Dissociated cartilage fragments were pelleted and washed to remove excess TrypLE and resuspended in DMEM-complete media (DMEM/F12 (Gibco), 1% Ab/Am, 10% FBS) supplemented with 2 mg/ml Collagenase Type II and incubated overnight at 37° C. with gentle agitation. The cartilage digest was pelleted, washed and subsequently resuspended in DMEM-complete. Released cells were counted using a haematocytometer and seeded at 10,000 cells per cm^2. The cultures were incubated at 37° C., 5% CO2 in a humidified incubator for 2 days before refreshing DMEM-complete every 2 days until confluency. For differentiation experiments, primary chondrocytes were differentiated in DMEM/F12 containing 2% FBS, 1% Ab/Am, 1× Insulin-Transferrin-Selenium premix, 10 ng/ml TGFβ3 (primary chondrocyte differentiation media).
For primary equine chondrocytes, chondrocytes were seeded in 10 μl micromasses as above and differentiated for 14 days in presence of primary chondrocyte differentiation media supplemented with 1 μM BI1347 before processing for gene expression analysis as described above.

MC3T3 cells = test: MC3T3 cell viability assay (resazurin); type: cell-based; settings: 1 μM, day 7 and 14
Method: To determine potential toxicity of CDK8i on MC3T3 cells, a cell viability assay was carried out on day 7 and 14 of MC3T3 cells treated with 1 μM BI1347. Briefly, culture media was replaced with differentiation media containing 0.2 mM resazurin dye and incubated for 2 hours at 37° C. before measurement at 570 nm normalized to 600 nm.

[2] = test system: primary human articular chondrocytes; test: Primary human articular chondrocytes in chondrogenesis and IL1β OA disease model: gene expression; type: cell-based; settings: 100 nM; for MATN3 gene expression, increase vs DMSO / SMOC2 gene expression, increase vs DMSO: N=1
Method: as §1
Additional experiments were carried out on primary chondrocytes (equine, canine and human) and ihMSC (TERT immortalised human mesenchymal stromal cell line) to investigate whether CDK8i protects from IL-1β induced degradation when added throughout the entirety of differentiation/IL-1β treatment. Briefly, ihMSCs were seeded at a density of 5×10^4 cells per 10 μl micromass and differentiated in ihMSC chondrogenic media (1% FBS, 1% Ab/Am, 1× Insulin-Transferrin-Selenium premix, 10 μM Y-27632, 100 nM dexamethasone, 50 μg/ml ascorbic acid, 20 ng/ml TGF-β3 (Peprotech)). Primary chondrocytes were seeded at 2.7×10^5 cells per 10 μl micromass and differentiated in primary chondrocyte differentiation media. All micromasses were differentiated for 12 days in the presence of 100 nM […] or DMSO. Some micromasses were processed for gene expression analysis/alcian blue staining on day 12, whilst others were treated with IL-β media (1% FBS, 1% Ab/Am, 10 ng/ml IL-1B) and CDK8i for 48-hours before processing for alcian blue staining/gene expression analysis on day 14 as previously described.

[3] = test system: STR/Ort mouse (spontaneous osteoarthritis); test: STR/Ort mouse 12 week study: gait analysis; type: in vivo; settings: 5 mg/kg intermittently
Method: Following the pilot study, a larger in vivo study using the STR/Ort OA mouse model was conducted. Str/ORT male mice aged 22 weeks (post OA onset) were dosed with either DMSO (N=5) or MSC2530818 5 mg/kg (N=6) intermittently as above for 12 weeks.
On week 11 mice were placed on the DigiGate™ system (MouseSpecifics), a treadmill based video gait analysis software. For Gait analysis, each mouse was placed on the DigiGate™ and allowed to acclimatise for 5 minutes, the belt speed was then set to 13 cm/s for 10 seconds to capture videos of mice whilst walking. Videos were then cropped to 5 seconds of active walking and number of steps per hind limb was counted for each mouse.

[4] = 1 μM days 12-14, with 10 ng/ml IL-1β
[5] = 1 μM throughout differentiation, 10 ng/ml IL-1β days 12-14

For `CN(C)C(=O)Cn1cc(-c2ccc(-c3cncc4ccccc34)cc2)cn1` [BI1347], the “ACAN expression, increase vs DMSO” value (ATDC5 micromass; [4]) was 3 fold, the “COL2A1 expression, increase vs DMSO” value (ATDC5 micromass; [4]) was 1.5 fold and the “COL2A1 expression, increase vs DMSO” value (ATDC5 micromass; 1 μM days 12-14, without IL-1β) was 1.7 fold. The “ACAN expression, increase vs DMSO” value (ATDC5 micromass; 1 μM days 12-14, without IL-1β (N.S)) was 1.2 fold, the “ACAN expression, increase vs DMSO” value (ATDC5 micromass; [5]) was 20 fold and the “COL2A1 expression, increase vs DMSO” value (ATDC5 micromass; [5]) was 3 fold. The “ACAN expression, increase vs DMSO” value ([1]; day 14) was 14 fold, the “RUNX2 expression vs DMSO” value ([1]; day 14) was “identical; also recorded: no increase” and the “SOX9 expression, increase vs DMSO” value ([1]; day 14 (N.S)) was 1.5 fold. The “COL2A1 expression, increase vs DMSO” value ([1]; day 14, N=1) was 9 fold and the “cell viability (resazurin) vs DMSO” value (MC3T3 cells) was “no difference in absorbance; also recorded: no toxicity observed”.

For `Cc1n[nH]c2ncc(C(=O)N3CCC[C@H]3c3ccc(Cl)cc3)cc12` [MSC2530818], the “ADAMTS5 gene expression, reduction vs DMSO” value ([2]; OA disease model (+IL1β), p=0.053) was 2.5 fold, the “MATN3 gene expression, increase vs DMSO” value ([2]; chondrogenic (−IL1β)) was 100 fold and the “SMOC2 gene expression, increase vs DMSO” value ([2]; chondrogenic (−IL1β)) was 6 fold. For the same compound, the “MATN3 gene expression, increase vs DMSO” value ([2]; disease model (+IL1β)) was 12 fold, the “SMOC2 gene expression, increase vs DMSO” value ([2]; disease model (+IL1β)) was 7 fold and the “gait symmetry (left/right step ratio)” value ([3]; week 11) was “modified step symmetry; also recorded: closer to 1”. For the same compound, the “number of steps per second, rear left limb, increase vs DMSO” value ([3]; week 11, MSC N=6, DMSO N=5) was 1.25 fold and the “number of steps per second, rear right limb, increase vs DMSO” value ([3]; week 11, MSC N=6, DMSO N=5) was 1.5 fold.
